{
  "source": "patent US20240150356A1",
  "about": "“Pyrimidine amide compounds and use thereof” (ALPHALA CO., LTD., priority 2019, published 2024)",
  "tested_on": "Hep3B cells (hepatocellular carcinoma cell line)",
  "assay": "In vitro MTS cell viability assay (NCI-60 methodology), Hep3B",
  "type": "cell-based",
  "conditions": "Homo sapiens, 48 h, 2 days drug incubation, 50% reduction vs time zero, read-out: Hep3B LC50",
  "method_in_brief": "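Following NCI-60 method, MTS viability of Hep3B measured 24 h after plating (time zero) and after a further 2-day exposure to five concentrations (2-fold series). LC50 defined where [(Ti−Tz)/Tz]×100 = −50.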",
  "note": "Read-outs that look alike come from different tables or passages of the source.",
  "data": [
    {"smiles": "O=C(Nc1nc(-c2ccc3c(c2)OCCO3)nc2c1cnn2C1CCCCC1)c1ccc([N+](=O)[O-])s1", "note": "[Compound 10-37, N-(1-cyclohexyl-6-(2,3-dihydrobenzo[b][1.4]dioxin-6-yl)-1H-pyrazolo[3,4-d]pyrimidin-4-yl)-5-nitrothiophene-2-carboxamide]", "values": [
      {"measurement": "LC50", "setting": "Table 10, MTS", "result": 1940, "unit": "nM"}
    ]},
    {"smiles": "CCOC(=O)[C@@H]1CCCN1c1nc(NC(=O)c2ccc([N+](=O)[O-])s2)c2cnn(-c3ccc(F)cc3)c2n1", "note": "[Compound 6-101, ethyl (1-(4-fluorophenyl)-4-(5-nitrothiophene-2-carboxamido)-1H-pyrazolo[3,4-d]pyrimidin-6-yl)-L-prolinate]", "values": [
      {"measurement": "LC50", "setting": "Table 6, MTS", "result": "> 1250", "unit": "nM"}
    ]},
    {"smiles": "O=C(Nc1nc(-c2ccc(F)cc2)nc2c1cnn2-c1ccc(F)cc1F)c1ccc([N+](=O)[O-])s1", "note": "[Compound 7-12]", "values": [
      {"measurement": "LC50", "setting": "Table 7, MTS", "result": 430, "unit": "nM"}
    ]},
    {"smiles": "Cn1ncc2c(NC(=O)c3ccc([N+](=O)[O-])s3)nc(-c3ccc(OC(C)(C)C)cc3)nc21", "note": "[Compound 1-7, N-(6-(4-(tert-butoxy)phenyl)-1-methyl-1H-pyrazolo[3,4-d]pyrimidin-4-yl)-5-nitrothiophene-2-carboxamide]", "values": [
      {"measurement": "LC50", "setting": "Table 1, MTS", "result": 1510, "unit": "nM"}
    ]},
    {"smiles": "C=CC(=O)Nc1ccc(-n2ncc3c(NC(=O)c4ccc([N+](=O)[O-])s4)nc(-c4ccc(F)cc4)nc32)cc1", "note": "[Compound 7-19, N-(1-(4-acrylamidophenyl)-6-(4-fluorophenyl)-1H-pyrazolo[3,4-d]pyrimidin-4-yl)-5-nitrothiophene-2-carboxamide]", "values": [
      {"measurement": "LC50", "setting": "Table 7, MTS", "result": 190, "unit": "nM"}
    ]},
    {"smiles": "O=C(Nc1nc(N2CCCC2)nc2c1cnn2-c1ccccc1)c1ccc([N+](=O)[O-])s1", "note": "[Compound 5-3, 5-nitro-N-(1-phenyl-6-(pyrrolidin-1-yl)-1H-pyrazolo[3,4-d]pyrimidin-4-yl)thiophene-2-carboxamide]", "values": [
      {"measurement": "LC50", "setting": "Table 5, MTS", "result": 4910, "unit": "nM"}
    ]},
    {"smiles": "CC(C)(C)c1ccc(-n2ncc3c(NC(=O)c4ccc([N+](=O)[O-])s4)nc(N4CCN(C(C)(C)C)CC4)nc32)cc1", "note": "[Compound 6-73]", "values": [
      {"measurement": "LC50", "setting": "Table 6, MTS", "result": 650, "unit": "nM"}
    ]},
    {"smiles": "COCCN(C)c1ccc(-c2nc(NC(=O)c3ccc([N+](=O)[O-])s3)c3cnn(-c4ccc(F)cc4)c3n2)cn1", "note": "[Compound 6-131, N-(1-(4-fluorophenyl)-6-(6-((2-methoxyethyl)(methyl)amino)pyridin-3-yl)-1H-pyrazolo[3,4-d]pyrimidin-4-yl)-5-nitrothiophene-2-carboxamide]", "values": [
      {"measurement": "LC50", "setting": "Table 6, MTS", "result": 370, "unit": "nM"}
    ]},
    {"smiles": "O=C(Nc1nc(Sc2ccccc2)nc2c1cnn2-c1ccccc1)c1ccc([N+](=O)[O-])s1", "note": "[Compound 5-15, 5-nitro-N-(1-phenyl-6-(phenylthio)-1H-pyrazolo[3,4-d]pyrimidin-4-yl)thiophene-2-carboxamide]", "values": [
      {"measurement": "LC50", "setting": "Table 5, MTS", "result": "> 5000", "unit": "nM"}
    ]},
    {"smiles": "CC(C)(C)c1ccc(-n2ncc3c(NC(=O)c4ccc([N+](=O)[O-])s4)nc(-c4cccc(F)c4)nc32)cc1", "note": "[Compound 6-80, N-(1-(4-(tert-butyl)phenyl)-6-(3-fluorophenyl)-1H-pyrazolo[3,4-d]pyrimidin-4-yl)-5-nitrothiophene-2-carboxamide]", "values": [
      {"measurement": "LC50", "setting": "Table 6, MTS", "result": 780, "unit": "nM"}
    ]},
    {"smiles": "Cc1ccc(-c2nc(NC(=O)c3ccc([N+](=O)[O-])s3)c3cnn(C4CCCCC4)c3n2)cn1", "note": "[Compound 10-19]", "values": [
      {"measurement": "LC50", "setting": "Table 10, MTS", "result": 1130, "unit": "nM"}
    ]},
    {"smiles": "COCCOc1ccc(-c2nc(NC(=O)c3ccc([N+](=O)[O-])s3)c3cnn(C4CCCCC4)c3n2)cc1", "note": "[Compound 10-50, N-(1-cyclohexyl-6-(4-(2-methoxyethoxy)phenyl)-1H-pyrazolo[3,4-d]pyrimidin-4-yl)-5-nitrothiophene-2-carboxamide]", "values": [
      {"measurement": "LC50", "setting": "Table 10, MTS", "result": 2640, "unit": "nM"}
    ]},
    {"smiles": "COCCOc1ccc(-c2nc(NC(=O)c3ccc([N+](=O)[O-])s3)c3cnn(-c4cccc(Cl)c4)c3n2)cn1", "note": "[Compound 6-43, N-(1-(3-chlorophenyl)-6-(6-(2-methoxyethoxy)pyridin-3-yl)-1H-pyrazolo[3,4-d]pyrimidin-4-yl)-5-nitrothiophene-2-carboxamide]", "values": [
      {"measurement": "LC50", "setting": "Table 6, MTS", "result": 90, "unit": "nM"}
    ]},
    {"smiles": "COc1ccc(-c2nc(NC(=O)c3ccc([N+](=O)[O-])s3)c3cnn(C4CCCCC4)c3n2)cn1", "note": "[Compound 10-21, N-(1-cyclohexyl-6-(6-methoxypyridin-3-yl)-1H-pyrazolo[3,4-d]pyrimidin-4-yl)-5-nitrothiophene-2-carboxamide]", "values": [
      {"measurement": "LC50", "setting": "Table 10, MTS", "result": 1120, "unit": "nM"}
    ]}
  ]
}
